Measured values from patent EP4603088A1, “N-PALMITOYLET[…] USE IN COMBINATION WITH MELOXICAM IN THE TREATMENT OF IN[…]” (priority 2024, dated 2025).
Values joined by “and” are separate entries in the source; they are usually repeats but may differ in a detail not shown here. Equal values may be shown once.

Legend:
[1] = tested on: CFA-induced inflammatory pain; assay: CFA-induced inflammatory pain model, paw pressure test; type: in vivo, male Sprague-Dawley rats; details: meloxicam 3 mg/kg and/or micronized PEA 10 mg/kg, single administration per os on day 7 after CFA; T0-T60; p = 0.1405 (meloxicam), p = 0.9588 (PEA), p < 0.0001 (combination)
Description: In the in vivo experimentation, male Sprague-Dawley rats (200-250 g) (Envigo, Varese, Italy) fed "ad libitum" and housed in cages with a controlled sleep/wake cycle were used.
Before the start of the study, the animals were subjected to a 1-week acclimatization period at the Center for Laboratory Animal Sheltering (Ce.S.A.L.) of the University of Florence, following all experimental procedures and protocols compliant with the principles of care and welfare of laboratory animals approved by the Italian Ministry of Health (Italian Legislative Decree 2014/26), European directives (EU Directive 2010/63) and the ARRIVE guidelines. […]
All animals were subjected to the paw pressure test at the level of the ipsilateral paw, performed before (T0) or after 15, 30, 45 and 60 minutes after the single administration of the treatment (T15, T30, T45 and T60, respectively). In particular, the nociceptive threshold was calculated with an analgesiometer (Ugo Basile, Varese, Italy) by applying an increasing pressure at constant speed (32 g/s) by means of a non-pointed conical support on the dorsal surface of the ipsilateral paw with respect to the injection of CFA (or vehicle). […]
The AUC was analyzed by a two-way factor analysis of variance (2x2 ANOVA), after plotting the mean values, according to the procedure shown by Slinker BK. […] The values were expressed as mean ± standard error mean (SEM). […]

[2] = tested on: inflammatory pain induced by Carrageenan; assay: Carrageenan-induced inflammatory pain model, Von Frey test; type: in vivo, male Sprague-Dawley rats; details: PEA 3 mg/kg and/or MLX 0.05 mg/kg orally 30 minutes before CAR; 3 and 5 hours after CAR injection; combination p=0.0084 and p=0.0004 vs vehicle
Procedure: All analyses were performed using SAS software, version 9.4 (SAS Institute, Cary, NC, USA). P value < 0.05 was considered significant.

[3] = tested on: LPS-induced inflammatory pain; assay: LPS-induced inflammatory pain model, paw pressure test; type: in vivo, Male Sprague-Dawley rats; details: 60 min after LPS
Procedure: Male Sprague-Dawley rats were housed in groups of four, in 26x41 cm cages, at a temperature of 23±1°C, with a 12-hour circadian cycle, and water/food "ad libitum" (standard diet). LPS (10 µg in 50 µl of 0.9% NaCl, Sigma-Aldrich) was injected into the plantar surface of the hind paw of the rat following isoflurane anesthesia. Control animals were treated with vehicle alone (0.9% NaCl). Ten minutes before the LPS injection, the compounds to be tested or the vehicle alone (1% CMC) were administered orally, according to the following treatment groups (N=8 where not otherwise specified): • CTRL (healthy animals injected with 0.9% NaCl) • VEIC (animals injected with LPS and treated with vehicle, N=9) • MLX30 (animals injected with LPS and treated with meloxicam 30 mg/kg) • MLX3 (animals injected with LPS and treated with meloxicam 3 mg/kg) • PEA10 (animals injected with LPS and treated with PEA 10 mg/kg) • PEA10+MLX3 (animals injected with LPS and treated with PEA 10 mg/kg + meloxicam 3 mg/kg) • PEA5 (animals injected with LPS and treated with PEA 5 mg/kg) • PEA5 + MLX3 (animals injected with LPS and treated with PEA 5 mg/kg + meloxicam 3 mg/kg).
Inflammatory pain induced by LPS injection was measured by paw pressure test. Briefly, before and sixty min after LPS injection, increasing pressure at a constant rate (32 g/s) was applied to the ipsilateral paw of the rat using a non-sharp conical support. […] An analgesimeter (Ugo Basile, Varese) was used for this purpose. The results were expressed in terms of analgesic potency, defined as percentage inhibition (mean ± SEM) of inflammatory pain induced by LPS and calculated according to the formula: 100*(treatm-VEIC)/(CTRL-VEIC).
The results were analyzed via Generalized Linear Model (GLM) followed by post-hoc analysis based on Tukey-Kramer correction for multiple comparisons. […] In order to verify whether the effect of PEA and meloxicam was synergistic, it was analyzed whether the extent of the inhibition of inflammatory pain by LPS was greater for the association of the two substances compared to the substances used individually. […] All analyses were performed using SAS software, version 9.4 (SAS Institute, Cary, NC, USA). P value < 0.05 was considered significant.

[4] = administered in ultra-micronized form; Nestmann Food Sci Nutr. 2016; cited from earlier work

SMILES | inflammatory pain tolerance threshold (paw pressure test), effect with respect to CFA [1] | analgesic effect vs vehicle (Von Frey test, paw retraction) [2] | analgesic potency, percentage inhibition of inflammatory pain induced by LPS (media) ([3]; PEA 5 mg/kg orally 10 min before LPS) | analgesic potency, percentage inhibition of inflammatory pain induced by LPS (media) ([3]; PEA 10 mg/kg orally 10 min before LPS) | effect on the LPS-induced drop of the nociceptive threshold vs LPS vehicle ([3]; meloxicam at 3 mg/kg and 30 mg/kg, PEA at 5 mg/kg and 10 mg/kg, alone or associated with low-dose meloxicam, p<0.0001 for all comparisons) | dose up to which free of acute and sub-chronic toxicity [4] | analgesic potency, percentage inhibition of inflammatory pain induced by LPS (media) ([3]; meloxicam 3 mg/kg orally 10 min before LPS, listed as MLX) | analgesic potency, percentage inhibition of inflammatory pain induced by LPS (media) ([3]; meloxicam 30 mg/kg orally 10 min before LPS, listed as MLX)
CCCCCCCCCCCCCCCC(=O)NCCO [PEA, N-palmitoylethanolamide] | no significant effect | no analgesic effect significantly different from the vehicle | 26,46% and 26,5% | 54,24% and 54,2% | significantly counteracted the pro-algic effect of LPS | ≥ 1000 mg/kg daily | – | –
Cc1cnc(NC(=O)C2=C(O)c3ccccc3S(=O)(=O)N2C)s1 [meloxicam] | no significant effect | – | – | – | – | – | 46,12% and 46,1% | 50,49% and 50,5%
